Reference: US20240122182A1, “PESTICIDALLY ACTIVE HETEROCYCLIC DERIVATIVES WITH SULFUR CONTAINING SUBSTITUENTS” (SYNGENTA CROP PROTECTION AG, priority 2021, published 2024)

Key:
Format in all cases: in vivo
[1] = test system: Plutella xylostella (Diamond Back Moth); assay: Activity against Plutella xylostella (diamond back moth), artificial diet; conditions: 192 h, application rate of 200 ppm, eggs, 8 days after infestation, read-out: effect in at least one of the two categories (mortality or growth inhibition)
Method: 24-well microtiter plates with artificial diet were treated with aqueous test solutions prepared from 10′000 ppm DMSO stock solutions by pipetting. After drying, Plutella eggs were pipetted through a plastic stencil onto a gel blotting paper and the plate was closed with it. The samples were assessed for mortality and growth inhibition in comparison to untreated samples 8 days after infestation.

[2] = test system: Myzus persicae (Green Peach Aphid); assay: Activity against Myzus persicae (green peach aphid), feeding/contact activity; conditions: 144 h, application rate of 200 ppm, mixed ages, 6 days after infestation
Method: Sunflower leaf discs were placed onto agar in a 24-well microtiter plate and sprayed with aqueous test solutions prepared from 10′000 ppm DMSO stock solutions. After drying, the leaf discs were infested with an aphid population of mixed ages. The samples were assessed for mortality 6 days after infestation.

[3] = test system: Chilo suppressalis (Striped Rice Stemborer); assay: Activity against Chilo suppressalis (striped rice stemborer), artificial diet; conditions: 144 h, application rate of 200 ppm, L2 larvae, 6 days after infestation, read-out: control (mortality, anti-feeding effect, growth inhibition)
Method: 24-well microtiter plates with artificial diet were treated with aqueous test solutions prepared from 10′000 ppm DMSO stock solutions by pipetting. After drying, the plates were infested with L2 larvae (6-8 per well). The samples were assessed for mortality, anti-feeding effect, and growth inhibition in comparison to untreated samples 6 days after infestation. Control of Chilo suppressalis by a test sample is given when at least one of the categories mortality, anti-feedant effect, and growth inhibition is higher than the untreated sample.

[4] = test system: Carpocapsa (Cydia) Pomonella (Codling Moth); assay: Activity against Carpocapsa (Cydia) pomonella (codling moth), larvicide, feeding/contact; conditions: 336 h, application rate of 12.5 ppm, L1 larvae, 14 days after infestation, read-out: effect in at least one of the two categories (mortality or growth inhibition)
Method: Diet cubes coated with paraffin were sprayed with diluted test solutions in an application chamber. After drying off the treated cubes (10 replicates) were infested with 1 L1 larvae. Samples were incubated at 26-27° C. and checked 14 days after infestation for mortality and growth inhibition. The following compounds gave an effect of at least 80% in at least one of the two categories (mortality or growth inhibition) at an application rate of 12.5 ppm: P1, P2, P3, P5, P9, P10, P11, P12, P14, P17, P19, P20, P21, P23, P24, P30, P31.

[5] = test system: Diabrotica Balteata (Corn Root Worm); assay: Activity against Diabrotica balteata (corn root worm), maize sprouts sprayed; conditions: 96 h, application rate of 200 ppm, L2 larvae, 4 days after infestation, read-out: effect in at least one of the two categories (mortality or growth inhibition)
Method: Maize sprouts placed onto an agar layer in 24-well microtiter plates were treated with aqueous test solutions prepared from 10′000 ppm DMSO stock solutions by spraying. After drying, the plates were infested with L2 larvae (6 to 10 per well). The samples were assessed for mortality and growth inhibition in comparison to untreated samples 4 days after infestation.

[6] = test system: Spodoptera littoralis (Egyptian Cotton Leaf Worm); assay: Activity against Spodoptera littoralis (Egyptian cotton leaf worm), cotton leaf discs sprayed; conditions: foliar, 72 h, application rate of 200 ppm, L1 larvae, 3 days after infestation, read-out: control (mortality, anti-feeding effect, growth inhibition)
Method: Cotton leaf discs were placed onto agar in 24-well microtiter plates and sprayed with aqueous test solutions prepared from 10′000 ppm DMSO stock solutions. After drying the leaf discs were infested with five L1 larvae. The samples were assessed for mortality, anti-feeding effect, and growth inhibition in comparison to untreated samples 3 days after infestation. Control of Spodoptera littoralis by a test sample is given when at least one of the categories mortality, anti-feedant effect, and growth inhibition is higher than the untreated sample.

[7] = test system: Nilaparvata lugens (Brown Plant Hopper); assay: Activity against Nilaparvata lugens (brown plant hopper), larvicide, systemic into water; conditions: 168 h, application rate of 12.5 ppm, N3 nymphs, 7 days after infestation
Method: Larvicide, systemic into water Rice plants cultivated in a nutritive solution were treated with the diluted test solutions into nourishing cultivation system. 1 day after application plants were infested with ˜20 N3 nymphs. 7 days after infestation samples were assessed for mortality and growth regulation.

[8] = test system: Myzus persicae (Green Peach Aphid); assay: Activity against Myzus persicae (green peach aphid), systemic activity; conditions: 144 h, test rate of 24 ppm, pea seedling roots in test solution, 6 days
Method: Roots of pea seedlings infested with an aphid population of mixed ages were placed directly into aqueous test solutions prepared from 10′000 DMSO stock solutions. The samples were assessed for mortality 6 days after placing seedlings into test solutions.

[9] = test system: Euschistus heros (Neotropical Brown Stink Bug); assay: Activity against Euschistus heros (neotropical brown stink bug), soybean leaves sprayed; conditions: 120 h, application rate of 200 ppm, N2 nymphs, 5 days after infestation, read-out: effect in at least one of the two categories (mortality or growth inhibition)
Method: Soybean leaves on agar in 24-well microtiter plates were sprayed with aqueous test solutions prepared from 10′000 ppm DMSO stock solutions. After drying the leaves were infested with N2 nymphs. The samples were assessed for mortality and growth inhibition in comparison to untreated samples 5 days after infestation.

CCS(=O)(=O)c1cc(C(F)(F)F)cnc1-c1cc2c(cn1)N(CC(F)(F)C(F)(F)F)C(=O)CC2 [P9, 6-[3-ethylsulfonyl-5-(trifluoromethyl)-2-pyridyl]-1-(2,2,3,3,3-pentafluoropropyl)-3,4-dihydro-1,7-naphthyridin-2-one]
≥ 80%: percent effect (mortality or growth inhibition) at 200 ppm [1] | mortality at 200 ppm [2] | mortality at 200 ppm [3] | percent effect (mortality or growth inhibition) at 12.5 ppm [4] | percent effect (mortality or growth inhibition) at 200 ppm [5] | mortality at 200 ppm [6] | mortality at 12.5 ppm [7]

CCS(=O)(=O)c1cc(C(F)(F)F)cnc1-c1cc2c(cn1)N(CC(F)(F)C(F)(F)F)C(=O)OC2 [P10, 6-[3-ethylsulfonyl-5-(trifluoromethyl)-2-pyridyl]-1-(2,2,3,3,3-pentafluoropropyl)-4H-pyrido[3,4-d][1,3]oxazin-2-one]
≥ 80%: percent effect (mortality or growth inhibition) at 200 ppm [1] | mortality at 200 ppm [2] | mortality at 200 ppm [3] | percent effect (mortality or growth inhibition) at 12.5 ppm [4] | percent effect (mortality or growth inhibition) at 200 ppm [5] | mortality at 200 ppm [6] | mortality at 12.5 ppm [7]

CCS(=O)(=O)c1ccc(C2CC2)nc1-c1cc2c(cn1)N(CC(F)(F)C(F)(F)F)C(=O)CC2 [P14, 6-(6-cyclopropyl-3-ethylsulfonyl-2-pyridyl)-1-(2,2,3,3,3-pentafluoropropyl)-3,4-dihydro-1,7-naphthyridin-2-one]
≥ 80%: percent effect (mortality or growth inhibition) at 200 ppm [1] | mortality at 200 ppm [2] | mortality at 200 ppm [3] | percent effect (mortality or growth inhibition) at 12.5 ppm [4] | percent effect (mortality or growth inhibition) at 200 ppm [5] | mortality at 200 ppm [6] | mortality at 12.5 ppm [7]

CCS(=O)(=O)c1ccc(C2CC2)nc1-c1cc2c(cn1)N(CC(F)(F)C(F)(F)F)C(=O)OC2 [P17, 6-(6-cyclopropyl-3-ethylsulfonyl-2-pyridyl)-1-(2,2,3,3,3-pentafluoropropyl)-4H-pyrido[3,4-d][1,3]oxazin-2-one]
≥ 80%: percent effect (mortality or growth inhibition) at 200 ppm [1] | mortality at 200 ppm [2] | mortality at 200 ppm [3] | percent effect (mortality or growth inhibition) at 12.5 ppm [4] | percent effect (mortality or growth inhibition) at 200 ppm [5] | mortality at 200 ppm [6] | mortality at 12.5 ppm [7]

CCS(=O)(=O)c1cc(N(C)C(C)=O)cnc1-c1cc2c(cn1)N(CC(F)(F)C(F)(F)F)C(=O)OC2 [P18, N-[5-ethylsulfonyl-6-[2-oxo-1-(2,2,3,3,3-pentafluoropropyl)-4H-pyrido[3,4-d][1,3]oxazin-6-yl]-3-pyridyl]-N-methyl-acetamide]
≥ 80%: percent effect (mortality or growth inhibition) at 200 ppm [1] | mortality at 200 ppm [2] | mortality at 200 ppm [3] | mortality at 24 ppm [8] | mortality at 200 ppm [6]

CCS(=O)(=O)c1cc(C2CC2)cnc1-c1cc2c(cn1)N(CC(F)(F)C(F)(F)F)C(=O)CC2 [P19, 6-(5-cyclopropyl-3-ethylsulfonyl-2-pyridyl)-1-(2,2,3,3,3-pentafluoropropyl)-3,4-dihydro-1,7-naphthyridin-2-one]
≥ 80%: percent effect (mortality or growth inhibition) at 200 ppm [1] | mortality at 200 ppm [3] | percent effect (mortality or growth inhibition) at 12.5 ppm [4] | percent effect (mortality or growth inhibition) at 200 ppm [5] | mortality at 200 ppm [6] | mortality at 12.5 ppm [7]

CCS(=O)(=O)c1cc(OC(C)(C)C#N)cnc1-c1cc2c(cn1)N(CC(F)(F)C(F)(F)F)C(=O)CC2 [P20, 2-[[5-ethylsulfonyl-6-[2-oxo-1-(2,2,3,3,3-pentafluoropropyl)-3,4-dihydro-1,7-naphthyridin-6-yl]-3-pyridyl]oxy]-2-methyl-propanenitrile]
≥ 80%: percent effect (mortality or growth inhibition) at 200 ppm [1] | percent effect (mortality or growth inhibition) at 200 ppm [9] | mortality at 200 ppm [2] | mortality at 200 ppm [3] | percent effect (mortality or growth inhibition) at 12.5 ppm [4] | percent effect (mortality or growth inhibition) at 200 ppm [5] | mortality at 200 ppm [6] | mortality at 12.5 ppm [7]

CCS(=O)(=O)c1cc(OCC(C)(F)F)cnc1-c1cc2c(cn1)N(CC(F)(F)C(F)(F)F)C(=O)CC2 [P24, 6-[5-(2,2-difluoropropoxy)-3-ethylsulfonyl-2-pyridyl]-1-(2,2,3,3,3-pentafluoropropyl)-3,4-dihydro-1,7-naphthyridin-2-one]
≥ 80%: percent effect (mortality or growth inhibition) at 200 ppm [1] | percent effect (mortality or growth inhibition) at 200 ppm [9] | mortality at 200 ppm [2] | mortality at 200 ppm [3] | percent effect (mortality or growth inhibition) at 12.5 ppm [4] | percent effect (mortality or growth inhibition) at 200 ppm [5] | mortality at 200 ppm [6] | mortality at 12.5 ppm [7]

CCS(=O)(=O)c1cc(C(C)(C)F)cnc1-c1cc2c(cn1)N(CC(F)(F)C(F)(F)F)C(=O)OC2 [P30, 6-[3-ethylsulfonyl-5-(1-fluoro-1-methyl-ethyl)-2-pyridyl]-1-(2,2,3,3,3-pentafluoropropyl)-4H-pyrido[3,4-d][1,3]oxazin-2-one]
≥ 80%: percent effect (mortality or growth inhibition) at 200 ppm [1] | mortality at 200 ppm [3] | percent effect (mortality or growth inhibition) at 12.5 ppm [4] | percent effect (mortality or growth inhibition) at 200 ppm [5] | mortality at 200 ppm [6] | mortality at 12.5 ppm [7]

CCS(=O)(=O)c1cc(OCC(C)(F)F)cnc1-c1cc2c(cn1)N(CC(F)(F)C(F)(F)F)C(=O)OC2 [P31, 6-[5-(2,2-difluoropropoxy)-3-ethylsulfonyl-2-pyridyl]-1-(2,2,3,3,3-pentafluoropropyl)-4H-pyrido[3,4-d][1,3]oxazin-2-one]
≥ 80%: percent effect (mortality or growth inhibition) at 200 ppm [1] | mortality at 200 ppm [3] | percent effect (mortality or growth inhibition) at 12.5 ppm [4] | percent effect (mortality or growth inhibition) at 200 ppm [5] | mortality at 200 ppm [6] | mortality at 12.5 ppm [7]

CCS(=O)(=O)c1cc(C2(C#N)CC2)cnc1-c1cc2c(cn1)N(CC(F)(F)F)C(=O)OC2 [P34, 1-[5-ethylsulfonyl-6-[2-oxo-1-(2,2,2-trifluoroethyl)-4H-pyrido[3,4-d][1,3]oxazin-6-yl]-3-pyridyl]cyclopropanecarbonitrile]
≥ 80%: percent effect (mortality or growth inhibition) at 200 ppm [1] | mortality at 200 ppm [2] | percent effect (mortality or growth inhibition) at 200 ppm [5] | mortality at 24 ppm [8]
